# In patent US5210089A, “D-rhamnono-1,5-lactone” (Monsanto Company, priority 1992, dated 1993):
# Entries after “also recorded” stand apart in the source; their conditions may differ.
# Target: T1, Lysosomal α-mannosidase (Homo sapiens, UniProt O00754)
# T1 sequence (O00754 50-1011): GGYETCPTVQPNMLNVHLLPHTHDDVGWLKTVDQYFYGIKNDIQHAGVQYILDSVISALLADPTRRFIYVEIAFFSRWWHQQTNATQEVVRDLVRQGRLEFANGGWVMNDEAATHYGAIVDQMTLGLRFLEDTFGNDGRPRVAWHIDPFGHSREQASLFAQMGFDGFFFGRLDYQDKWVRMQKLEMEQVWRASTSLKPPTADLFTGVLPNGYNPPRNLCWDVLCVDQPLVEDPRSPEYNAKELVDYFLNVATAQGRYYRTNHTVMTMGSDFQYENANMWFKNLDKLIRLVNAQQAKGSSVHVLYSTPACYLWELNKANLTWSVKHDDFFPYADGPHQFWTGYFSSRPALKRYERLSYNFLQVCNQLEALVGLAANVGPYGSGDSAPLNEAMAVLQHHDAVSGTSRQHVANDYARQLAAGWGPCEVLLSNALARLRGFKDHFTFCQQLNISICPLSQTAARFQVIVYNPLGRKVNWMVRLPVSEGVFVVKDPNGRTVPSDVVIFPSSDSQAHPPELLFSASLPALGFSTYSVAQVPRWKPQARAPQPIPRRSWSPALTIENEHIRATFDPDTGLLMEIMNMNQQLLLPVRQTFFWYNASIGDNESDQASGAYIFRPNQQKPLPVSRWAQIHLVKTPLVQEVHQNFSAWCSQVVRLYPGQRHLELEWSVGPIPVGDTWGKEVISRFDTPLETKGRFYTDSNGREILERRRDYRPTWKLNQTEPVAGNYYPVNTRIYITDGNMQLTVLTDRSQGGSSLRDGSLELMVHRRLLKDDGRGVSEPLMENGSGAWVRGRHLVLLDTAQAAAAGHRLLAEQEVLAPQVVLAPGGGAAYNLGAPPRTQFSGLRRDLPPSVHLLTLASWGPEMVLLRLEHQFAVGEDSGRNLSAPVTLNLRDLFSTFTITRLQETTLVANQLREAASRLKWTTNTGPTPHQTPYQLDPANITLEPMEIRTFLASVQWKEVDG
# Test: Human liver glycosidase assay, lysosomal α-mannosidase
# Type: biochemical
# Parameters: human liver extracts; from tissue; host or cells: human liver extracts
# Conditions: for inhibition at 1000 µM: 1 mM compound, 4-methylumbelliferyl-glycoside substrate; for inhibition at 1000 µM / IC50: human liver; for IC50: read-out: I50, lysosomal α-mannosidase
# Method: Melting points were recorded on a Kofler hot block. Proton nuclear magnetic resonance (δH) spectra were recorded on Varian Gemini 200 (at 200 MHz), Bruker WH 300 (300 MHz), or Bruker AM 500 (500 MHz) spectrometers. Carbon nuclear magnetic resonance (δC) spectra were recorded on a Varian Gemini 200 (50 MHz) or a Bruker 250 (62.9 MHz) spectrometer. Multiplicities were assigned using DEPT sequence on the Gemini and by off resonance decoupling on the Bruker. Spectra run in D2 O were referenced to methanol as an internal standard. All chemical shifts are quoted on the δ-scale. Infrared spectra were recorded on a Perkin-Elmer 297, or on a Perkin-Elmer 781 spectrophotometer. Mass spectra were recorded on VG Micromass 30F, ZAB lF, Masslab 20-250 or Trio-1 GCMS (DB-5 column) spectrometers using desorption chemical ionization (NH3 DCI), electron impact (EI), chemical ionization (NH3 CI) and fast atom bombardment (FAB) techniques, as stated. […] Concentrations were given in g/100 ml. Hydrogenations were run under an atmosphere of hydrogen gas maintained by inflated balloon. Microanalyses were performed by the microanalysis service of the DysonPerrins laboratory, Oxford UK. Thin layer chromatography (t.l.c.) was carried out on aluminum sheets coated with 60F254 silica. Plates were developed using either 5% v/v concentrated sulphuric acid in methanol, 0.2% w/v cerium (IV) sulphate and 5% ammonium molybdate in 2M sulphuric acid and 0.5% ninhydrin in methanol. Flash chromatography was carried out using Sorbsil C60 40/60 silica. Ion-exchange chromatography was performed using Dowex 50W-X8 (H) and Sigma CG 400 (Cl) resins. The resins were washed with 2M hydrochloric acid and 2M sodium hydroxide solution, respectively, and subsequently with distilled water, prior to use. Solvents and commercially available reagents were dried and purified before use according to standard procedures; dichloromethane was refluxed over and distilled from calcium hydride, N,N-dimethylformamide was distilled under reduced pressure from calcium hydride, methanol was distilled from magnesium methoxide, pyridine was distilled from, and stored over, potassium hydroxide and tetrahydrofuran was distilled from a purple solution of sodium benzophenone ketyl immediately before use. Hexane was distilled at 68° C. before use to remove involatile fractions. 2,3-O-Isopropylidene-L-gulono-1,4-lactone (9) [H. Ogura et al., J. Oro. Chem. 37, 72 (1972); G. W. J. Fleet Tetrahedron 45, 319 (1989)]and 2,3-O-isopropylidene-D-gulono-1,4-lactone (15) [L. M. Lerner et al., J. Org. Chem. 33, 1780 (1968)]were prepared from D- and L-Chem. gulonolactones [purchased from the Sigma Chemical Company] as reported previously. See, e.g., Fleet, U.S. Pat. No. 4,861,892. Human liver glycosidases were assayed in the absence and presence [1 mM] of each of the compounds using the appropriate buffered 4-methylumbellifeeryl-glycosides as substrates, as described previously. [B. Winchest et al., Biochem. J. 265, 277 (1990)]. Naringinase was assayed using pnitrophenyl α-L-rhamnoside (1.75 mM) as substrates, according to Romero [C. Romero et al., Anal. Biochem. 149, 566 (1985)].
# The enzymes included human liver glycosidases and naringinase. The latter enzyme is a readily available endo-L-rhamnosidase described by Romero et al., Anal. Biochem. 149, 566 (1985).
inhibition at 1000 µM [%],Compound,IC50 [µM],"Inhibition of α-mannosidase (in words) (listed as D-rhamnono-1,5-lactone)"
86,"C[C@H]1NC(=O)[C@@H](O)[C@@H](O)[C@@H]1O [D-Rhamno-1,5-lactam (6), 6-Deoxy-D-mannono-δ-lactam]",100,inhibitor of α- and β-mannosidases; also recorded: better inhibitor of α-mannosidase than deoxymannojirimycin (1)
0,"C[C@@H]1NC(=O)[C@H](O)[C@H](O)[C@H]1O [L-Rhamno-1,5-lactam (8), 6-Deoxy-L-mannono-δ-lactam]",–,–

Compound,inhibition at 1000 µM [%],IC50 [µM],"Inhibition of α-mannosidase (in words) (listed as D-rhamnono-1,5-lactone)"
"O=C1N[C@H](CO)[C@@H](O)[C@H](O)[C@@H]1O [Mannono-1,5-lactam (2), D-mannonolactam]",94,50,–
